Source: patent US6503881B2 (priority 1996, dated 2003)
Where two headings read alike, the source gives them in different places.

Tested on: bacteria
[1] = A. calcoaceticus AC002, agarose dilution
[2] = E. cloacae ECL007, agarose dilution
[3] = E. coli ECO005, agarose dilution
[4] = E. faecalis EFS001, agarose dilution
[5] = E. faecalis EFS008, agarose dilution
[6] = K. pneumoniae KP001, agarose dilution
[7] = P. aeruginosa PA004, agarose dilution
[8] = S. aureus SA014, agarose dilution
[9] = S. aureus SA093, agarose dilution
[10] = S. epidermidis SE010, agarose dilution
[11] = S. maltophilia SMA002, agarose dilution
[12] = S. marcescens SMS003, agarose dilution

Substance | MIC (A. calcoaceticus AC002) [µg/mL] | MIC (E. cloacae ECL007) [µg/mL] | MIC (E. coli ECO002) [µg/mL] | MIC (E. faecalis EFS008) [µg/mL] | MIC (K. pneumoniae KP002) [µg/mL] | MIC (S. maltophilia SMA001) [µg/mL] | MIC (S. marcescens SMS004) [µg/mL] | MIC (E. coli ECO005) [µg/mL] | MIC (K. pneumoniae KP001) [µg/mL] | MIC (S. epidermidis SE010) [µg/mL] | MIC (S. maltophilia SMA002) [µg/mL] | MIC (S. marcescens SMS003) [µg/mL] | MIC (A. calcoaceticus AC001) [µg/mL] | MIC (E. faecalis EFS002) [µg/mL] | MIC (E. faecium EFM003) [µg/mL] | MIC (P. aeruginosa PA024) [µg/mL] | also measured
W W R W P W W P W R R K [MBI 11A10CN] | – | – | – | – | – | – | – | – | – | – | – | – | – | – | – | – | MIC [1]: 4 µg/mL; MIC [2]: 64 µg/mL; MIC [3]: 16 µg/mL; MIC [4]: 4 µg/mL; MIC [5]: 16 µg/mL; MIC [6]: 16 µg/mL; MIC [7]: 64 µg/mL; MIC [8]: 4 µg/mL; MIC [9]: 2 µg/mL; MIC [10]: 4 µg/mL; MIC [11]: 32 µg/mL; MIC [12]: >128 µg/mL
L R W W W P W R R K [MBI 11G25CN] | – | – | – | – | – | – | – | – | – | – | – | – | – | – | – | – | MIC [1]: 2 µg/mL; MIC [2]: >128 µg/mL; MIC [3]: 8 µg/mL; MIC [4]: 2 µg/mL; MIC [5]: 16 µg/mL; MIC [6]: 16 µg/mL; MIC [7]: 64 µg/mL; MIC [8]: 2 µg/mL; MIC [9]: 1 µg/mL; MIC [10]: 2 µg/mL; MIC [11]: 32 µg/mL; MIC [12]: >128 µg/mL
I L K K W P W W P W R R [MBI 11G7ACN] | 4 | >32 | 16 | 32 | >32 | 32 | >32 | – | – | – | – | – | – | – | – | – | MIC (E. faecium EFM001): 8 µg/mL; MIC (P. aeruginosa PA006): >32 µg/mL; MIC (S. aureus SA010): 1 µg/mL; MIC (S. epidermidis SE002): 4 µg/mL
I L K K W P W W P W R K [MBI 11B4ACN] | 4 | >128 | – | 64 | – | – | – | 32 | 32 | 8 | 64 | >128 | – | – | – | – | MIC (P. aeruginosa PA004): >128 µg/mL; MIC (S. aureus SA008): 1 µg/mL
I L K K Y P W Y P W R R K [MBI 11A5CN] | – | >128 | – | – | – | – | – | – | >128 | – | >128 | >128 | >128 | 32 | 4 | – | MIC (E. coli ECO003): 128 µg/mL; MIC (P. aeruginosa PA003): >128 µg/mL; MIC (S. aureus SA002): 6 µg/mL
P W W P W R R K [MBI 11D3CN] | – | >128 | 64 | – | >128 | 64 | >128 | – | – | – | – | – | >128 | 32 | 8 | >128 | MIC (S. aureus SA009): 8 µg/mL
ILKKWPWWPWRRIMILKKAGS [MBI 11D6CN] | 4 | >32 | 32 | – | >64 | >64 | >64 | – | – | 4 | – | – | – | 4 | 1 | >64 | MIC (S. aureus SA009): 8 µg/mL
ILRWPWWPWRRKDMILKKAGS [MBI 11B18CN] | 2 | >128 | – | 4 | – | – | – | 32 | 32 | 4 | 64 | >128 | – | – | – | – | MIC (P. aeruginosa PA004): >128 µg/mL; MIC (S. aureus SA093): 2 µg/mL
I L K K W P W W P W R R K [MBI 11CNX1] | – | >64 | – | – | – | – | – | 64 | >64 | – | >64 | >64 | >64 | – | – | >64 | MIC (E. faecalis EFS004): 16 µg/mL; MIC (S. aureus SA006): 2 µg/mL
I L K K W P W W P W R R k [MBI 11E2CN] | 4 | >128 | 8 | – | 64 | 64 | >128 | – | – | 4 | – | – | – | 32 | – | – | MIC (E. faecium EFM001): 16 µg/mL; MIC (P. aeruginosa PA001): >128 µg/mL; MIC (S. aureus SA016): 2 µg/mL
